Experimental data published in patent US12448389B2, “BRM targeting compounds and associated methods of use” (Prelude Therapeutics Incorporated, priority 2020, dated 2025).

Key:
SMARCA2 = target: T1, SMARCA2 (Homo sapiens, UniProt P51531); assay: SMARCA2 protein degradation in NCIH520 cells by In Cell Western (ICW); format: cell-based; conditions: highest concentration 1 μM; for DC50: H520 cells, overnight incubation (maximum 18 hours), read-out: DC50 (SM2_H520): SMARCA2 degradation potency; for Dmax: NCI-H520, overnight incubation (maximum 18 hours), read-out: Dmax % (SM2_H520): maximum SMARCA2 degradation within the concentrations tested
T1 construct: endogenous in cells; host or cells: NCI-H520 (given as NCIH520 / NCIH1520 / H520)
T1 sequence (P51531 whole entry): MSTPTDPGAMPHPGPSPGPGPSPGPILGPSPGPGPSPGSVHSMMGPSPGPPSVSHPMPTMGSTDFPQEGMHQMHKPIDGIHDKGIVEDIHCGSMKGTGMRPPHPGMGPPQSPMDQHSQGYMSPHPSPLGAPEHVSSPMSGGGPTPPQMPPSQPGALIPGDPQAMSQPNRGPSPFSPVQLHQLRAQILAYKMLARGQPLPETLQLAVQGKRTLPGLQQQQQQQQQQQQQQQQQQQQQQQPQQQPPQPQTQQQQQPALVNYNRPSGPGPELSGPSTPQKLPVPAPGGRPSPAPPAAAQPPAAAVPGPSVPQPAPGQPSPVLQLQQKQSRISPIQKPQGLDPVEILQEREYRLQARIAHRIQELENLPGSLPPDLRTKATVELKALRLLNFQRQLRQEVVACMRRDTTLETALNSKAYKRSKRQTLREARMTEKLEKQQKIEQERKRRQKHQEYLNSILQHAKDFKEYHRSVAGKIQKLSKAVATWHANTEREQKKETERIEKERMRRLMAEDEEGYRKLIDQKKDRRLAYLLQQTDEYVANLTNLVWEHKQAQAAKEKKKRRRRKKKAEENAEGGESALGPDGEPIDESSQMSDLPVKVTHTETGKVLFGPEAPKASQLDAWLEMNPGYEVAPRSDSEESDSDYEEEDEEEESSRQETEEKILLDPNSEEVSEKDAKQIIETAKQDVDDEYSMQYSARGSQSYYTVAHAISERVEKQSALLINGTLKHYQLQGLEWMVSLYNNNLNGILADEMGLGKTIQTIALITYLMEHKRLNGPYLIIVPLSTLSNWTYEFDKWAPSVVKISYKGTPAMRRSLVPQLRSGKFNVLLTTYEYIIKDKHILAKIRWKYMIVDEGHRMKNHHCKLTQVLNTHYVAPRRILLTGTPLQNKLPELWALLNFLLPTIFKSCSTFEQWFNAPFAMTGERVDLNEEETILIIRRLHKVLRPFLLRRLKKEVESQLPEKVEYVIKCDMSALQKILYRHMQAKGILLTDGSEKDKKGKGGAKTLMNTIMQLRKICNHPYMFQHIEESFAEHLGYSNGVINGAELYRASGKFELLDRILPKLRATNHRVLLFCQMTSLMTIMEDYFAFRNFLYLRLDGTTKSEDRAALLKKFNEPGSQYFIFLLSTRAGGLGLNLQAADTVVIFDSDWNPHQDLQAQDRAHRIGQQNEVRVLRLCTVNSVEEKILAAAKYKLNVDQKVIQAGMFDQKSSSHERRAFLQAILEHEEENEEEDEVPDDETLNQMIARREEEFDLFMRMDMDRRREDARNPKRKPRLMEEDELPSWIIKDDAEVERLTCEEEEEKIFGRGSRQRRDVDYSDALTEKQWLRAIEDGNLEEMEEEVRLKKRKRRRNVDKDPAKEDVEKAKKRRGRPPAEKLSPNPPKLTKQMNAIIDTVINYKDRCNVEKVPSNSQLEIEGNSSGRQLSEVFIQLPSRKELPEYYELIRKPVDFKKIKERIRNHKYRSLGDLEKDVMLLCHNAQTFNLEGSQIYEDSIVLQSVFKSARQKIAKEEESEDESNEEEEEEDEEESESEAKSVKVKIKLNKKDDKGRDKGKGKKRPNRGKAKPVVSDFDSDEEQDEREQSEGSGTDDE
Procedure: (§1) Compounds were dissolved in DMSO to make 10 mM stock and 3-fold series dilutions were further conducted keeping the highest concentration 10 μM. NCIH11693 and NCIH1520 cells were maintained in PRMI 1640 medium (Corning Cellgro, Catalog #: 10-040-CV) supplemented with 10% v/v FBS (GE Healthcare, Catalog #: SH30910.03) by splitting 1:3 twice a week.
(§2) SMACRA2 and SMARCA4 Protein Degradation DC50 Values in NCIH1693 and NCIH520 Cells by in Cell Western (ICW) Analysis.
(§3) Cells were trypsinized and 30 thousand cells/well were seeded into 384-well plates and were allowed to grow for 1-2 hours at 37° C. Eight-point, 3-fold serial dilutions of compounds from 0.5 mM stocks were added to the cells (using digital Dispenser D300-Tecan, keeping highest concentration 1 μM and normalizing with DMSO at the highest dispensed volume). Plates were incubated at 37° C. for overnight (maximum 18 hours). Cells incubated with DMSO was used as a vehicle control.
(§4) To perform In Cell Western, medium was removed from all the wells leaving cells attached to the surface. After removing the medium, cells were fixed within the plates with 40 μL of 4% formaldehyde by incubating at room temperature for 30 minutes, and then permeabilized with wash buffer (1×PBS with 0.1% Triton X-100) by washing the plate 5 times with 50 μL/well. Before labeling with primary antibodies, cells were blocked with 30 μL/well of blocking buffer (Licor Odyssey blocking buffer PBS #927-40000) for 30 minutes at room temperature. To measure SMARCA2 or SMARCA4 proteins, cells were labeled with 20 μL/well of anti SMARCA2 or SMACRA4 antibodies (Cell Signaling BRM #11966S 1:800, Cell Signaling BRG #49360S 1:800) diluted in Li-Cor Odyssey blocking buffer-PBS #927-40000, followed by overnight incubation at 4° C.
(§5) The next day, plates were washed 5×5 minutes with 50 μL/well of washing buffer to remove all the excess primary antibody and then 20 μL from a mixture of secondary antibody and fluorescent DNA specific dye (Goat anti rabbit 1:500 IRDye-800CW #92632211, and DRAQ5™ 1:2000-#ab108410) was added to each well. Plates were incubated for 1 hour at room temperature with gentle rocking. Cells were washed 5 times with 50 μL/well wash buffer, followed by one last wash with DI water, followed by 10 mins drying at 37° C. oven before scanning. Plates were scanned using Li-Cor Odyssey CLx imaging system to acquire integrated intensities at 700 nm and 800 nm. SMARCA signals were normalized to total cell count and then these normalized values were used to calculate the percent degradation relative to DMSO control and maximum inhibition. DC50s were calculated by using the GraphPad Prism4 program based on sigmoidal dose response equation ([Inhibitor] vs. normalized response-Variable slope).
(§6) In Table 36, the DC50/Dmax% (SM2_H520) refers to SMARCA2 degradation potency/maximum SMARCA2 degradation within the concentrations in H520 cells and DC50/Dmax% (SM4_H520) refers to SMARCA4 degradation potency/maximum SMARCA4 degradation within the concentrations tested in H520 cells.

SMARCA4 = target: T2, SMARCA4 (Homo sapiens, UniProt P51532); assay: SMARCA4 protein degradation in NCIH520 cells by In Cell Western (ICW); format: cell-based; conditions: highest concentration 1 μM; for DC50: H520 cells, overnight incubation (maximum 18 hours), read-out: DC50 (SM4_H520): SMARCA4 degradation potency; for Dmax: NCI-H520, overnight incubation (maximum 18 hours), read-out: Dmax % (SM4_H520): maximum SMARCA4 degradation within the concentrations tested
T2 construct: endogenous in cells; host or cells: NCI-H520 (given as NCIH520 / NCIH1520 / H520)
T2 sequence (P51532 whole entry): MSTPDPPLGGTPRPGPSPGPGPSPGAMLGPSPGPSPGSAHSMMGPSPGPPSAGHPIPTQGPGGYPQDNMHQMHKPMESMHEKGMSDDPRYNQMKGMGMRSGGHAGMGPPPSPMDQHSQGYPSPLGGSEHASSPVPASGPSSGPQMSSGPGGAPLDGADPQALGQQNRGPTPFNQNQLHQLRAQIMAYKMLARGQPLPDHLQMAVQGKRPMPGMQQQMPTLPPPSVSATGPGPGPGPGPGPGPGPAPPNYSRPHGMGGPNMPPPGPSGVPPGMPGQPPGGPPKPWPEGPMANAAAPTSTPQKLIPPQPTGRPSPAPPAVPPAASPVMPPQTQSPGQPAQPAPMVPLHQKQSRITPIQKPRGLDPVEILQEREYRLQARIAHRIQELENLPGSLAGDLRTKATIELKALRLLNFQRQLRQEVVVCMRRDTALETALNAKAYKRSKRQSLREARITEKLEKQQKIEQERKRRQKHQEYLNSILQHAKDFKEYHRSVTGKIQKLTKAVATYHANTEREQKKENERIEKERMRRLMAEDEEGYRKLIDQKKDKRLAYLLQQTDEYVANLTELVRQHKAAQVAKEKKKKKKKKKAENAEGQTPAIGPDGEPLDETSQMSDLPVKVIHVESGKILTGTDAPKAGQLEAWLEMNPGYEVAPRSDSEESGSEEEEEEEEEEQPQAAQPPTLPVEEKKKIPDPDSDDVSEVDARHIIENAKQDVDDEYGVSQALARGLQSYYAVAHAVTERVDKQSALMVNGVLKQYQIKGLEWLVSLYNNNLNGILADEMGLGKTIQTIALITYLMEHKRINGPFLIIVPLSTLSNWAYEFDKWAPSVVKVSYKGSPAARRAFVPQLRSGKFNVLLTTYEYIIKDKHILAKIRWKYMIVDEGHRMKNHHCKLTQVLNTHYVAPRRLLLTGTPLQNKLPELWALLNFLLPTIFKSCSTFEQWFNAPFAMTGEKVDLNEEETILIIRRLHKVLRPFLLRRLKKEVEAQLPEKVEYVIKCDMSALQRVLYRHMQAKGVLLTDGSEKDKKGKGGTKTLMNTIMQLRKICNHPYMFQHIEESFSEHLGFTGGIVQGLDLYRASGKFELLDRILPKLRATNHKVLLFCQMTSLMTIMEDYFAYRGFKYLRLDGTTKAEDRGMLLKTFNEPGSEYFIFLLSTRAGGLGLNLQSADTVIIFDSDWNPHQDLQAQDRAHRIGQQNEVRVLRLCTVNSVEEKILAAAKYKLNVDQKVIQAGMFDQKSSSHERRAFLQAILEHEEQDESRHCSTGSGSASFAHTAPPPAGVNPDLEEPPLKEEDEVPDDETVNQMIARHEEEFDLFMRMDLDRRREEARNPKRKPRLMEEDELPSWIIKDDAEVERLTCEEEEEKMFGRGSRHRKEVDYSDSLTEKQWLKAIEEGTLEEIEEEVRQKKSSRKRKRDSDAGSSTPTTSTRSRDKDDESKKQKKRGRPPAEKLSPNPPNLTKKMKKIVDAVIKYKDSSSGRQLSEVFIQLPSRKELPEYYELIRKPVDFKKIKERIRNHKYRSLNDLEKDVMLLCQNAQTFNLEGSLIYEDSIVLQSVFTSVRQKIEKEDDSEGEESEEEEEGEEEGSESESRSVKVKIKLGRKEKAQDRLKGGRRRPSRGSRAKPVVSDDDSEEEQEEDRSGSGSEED
Procedure: as §1, §2, §3, §4, §5, §6

| DC50 (SMARCA2) [nM] | Dmax (SMARCA2) [%] | DC50 (SMARCA4) [nM] | Dmax (SMARCA4) [%] | SMILES |
| --- | --- | --- | --- | --- |
| < 100 | > 75 | < 100 | 50 to 75 | O=C1CCC(N2Cc3cc(CN4CCC(OCCN5CCC(N6CCN7c8cc(-c9ccccc9O)nnc8NC[C@H]7C6)CC5)CC4)ccc3C2=O)C(=O)N1 (stereo partly drawn) [Example 9, 3-(5-((4-(2-(4-((S)-2-(2-hydroxyphenyl)-5,6,6a,7,9,10-hexahydro-8H-pyrazino[1′,2′:4,5]pyrazino[2,3-c]pyridazin-8-yl)piperidin-1-yl)ethoxy)piperidin-1-yl)methyl)-1-oxoisoindolin-2-yl)piperidine-2,6-dione] |
| < 100 | > 75 | < 100 | > 75 | O=C1CCC(N2Cc3cc(CCN4CCC(c5cnc(N6CCN7c8cc(-c9ccccc9O)nnc8NC[C@@H]7C6)nc5)CC4)ccc3C2=O)C(=O)N1 (stereo partly drawn) [Example 4, 3-(5-(2-(4-(2-((R)-2-(2-hydroxyphenyl)-5,6,6a,7,9,10-hexahydro-8H-pyrazino[1′,2′:4,5]pyrazino[2,3-c]pyridazin-8-yl)pyrimidin-5-yl)piperidin-1-yl)ethyl)-1-oxoisoindolin-2-yl)piperidine-2,6-dione] |
| < 100 | > 75 | < 100 | > 75 | O=C1CCC(N2Cc3cc(CCN4CCC(c5cnc(N6CCN7c8cc(-c9ccccc9O)nnc8NC[C@H]7C6)nc5)CC4)ccc3C2=O)C(=O)N1 (stereo partly drawn) [Example 1, 3-(5-(2-(4-(2-((S)-2-(2-hydroxyphenyl)-5,6,6a,7,9,10-hexahydro-8H-pyrazino [1′,2′:4,5]pyrazino[2,3-c]pyridazin-8-yl)pyrimidin-5-yl)piperidin-1-yl)ethyl)-1-oxoiso-indolin-2-yl)piperidine-2,6-dione] |
| < 100 | > 75 | < 100 | > 75 | O=C1CCC(N2Cc3ccc(N4CCN(CCN5CCC(N6CCN7c8cc(-c9ccccc9O)nnc8NC[C@H]7C6)CC5)CC4)cc3C2=O)C(=O)N1 (stereo partly drawn) [Example 17, 3-(6-(4-(2-(4-((S)-2-(2-hydroxyphenyl)-5,6,6a,7,9,10-hexahydro-8H-pyrazino [1′,2′:4,5]pyrazino[2,3-c]pyridazin-8-yl)piperidin-1-yl)ethyl)piperazin-1-yl)-1-oxoisoindolin-2-yl)piperidine-2,6-dione] |
| < 100 | > 75 | < 100 | > 75 | O=C1CCC(N2Cc3cc(CCN4CCC(OCCN5CCC(N6CCN7c8cc(-c9ccccc9O)nnc8NC[C@H]7C6)CC5)CC4)ccc3C2=O)C(=O)N1 (stereo partly drawn) [Example 8, 3-(5-(2-(4-(2-(4-((S)-2-(2-hydroxyphenyl)-5,6,6a,7,9,10-hexahydro-8H-pyrazino[1′,2′:4,5]pyrazino[2,3-c]pyridazin-8-yl)piperidin-1-yl)ethoxy)piperidin-1-yl)ethyl)-1-oxoisoindolin-2-yl)piperidine-2,6-dione] |

Continued, compound first:

| SMILES | DC50 (SMARCA2) [nM] | Dmax (SMARCA2) [%] | DC50 (SMARCA4) [nM] | Dmax (SMARCA4) [%] |
| --- | --- | --- | --- | --- |
| O=C1CCC(N2Cc3cc(CCN4CCC(/C=C/c5cnc(N6CCN7c8cc(-c9ccccc9O)nnc8NC[C@H]7C6)nc5)CC4)ccc3C2=O)C(=O)N1 (stereo partly drawn) [Example 7, 3-(5-(2-(4-((E)-2-(2-((S)-2-(2-hydroxyphenyl)-5,6,6a,7,9,10-hexahydro-8H-pyrazino[1′,2′:4,5]pyrazino[2,3-c]pyridazin-8-yl)pyrimidin-5-yl)vinyl)piperidin-1-yl)ethyl)-1-oxoisoindolin-2-yl)piperidine-2,6-dione] | < 100 | > 75 | < 100 | > 75 |
| O=C1CCC(N2Cc3cc(CCN4CC=C(c5cnc(N6CCN7c8cc(-c9ccccc9O)nnc8NC[C@H]7C6)nc5)CC4)ccc3C2=O)C(=O)N1 (stereo partly drawn) [Example 6, 3-(5-(2-(4-(2-((S)-2-(2-hydroxyphenyl)-5,6,6a,7,9,10-hexahydro-8H-pyrazino[1′,2′:4,5]pyrazino[2,3-c]pyridazin-8-yl)pyrimidin-5-yl)-3,6-dihydropyridin-1(2H)-yl)ethyl)-1-oxoisoindolin-2-yl)piperidine-2,6-dione] | < 100 | > 75 | < 100 | > 75 |
| O=C1CCC(N2C(=O)c3ccc(N4CCC(N5CCC(N6CCN7c8cc(-c9ccccc9O)nnc8NC[C@H]7C6)CC5)C4)cc3C2=O)C(=O)N1 (stereo partly drawn) [Example 13, 2-(2,6-Dioxopiperidin-3-yl)-5-(3-(4-((S)-2-(2-hydroxyphenyl)-5,6,6a,7,9,10-hexahydro-8H-pyrazino[1′,2′:4,5]pyrazino[2,3-c]pyridazin-8-yl)piperidin-1-yl)pyrrolidin-1-yl) isoindoline-1,3-dione] | < 100 | > 75 | < 100 | > 75 |
| O=C1CCC(n2c3ccc(CCCN4CCC(N5CCN6c7cc(-c8ccccc8O)nnc7NC[C@H]6C5)CC4)cc3c3cccnc32)C(=O)N1 (stereo partly drawn) [Example 19, 3-(6-(3-(4-((S)-2-(2-hydroxyphenyl)-5,6,6a,7,9,10-hexahydro-8H-pyrazino [1′,2′:4,5]pyrazino[2,3-c]pyridazin-8-yl)piperidin-1-yl)propyl)-9H-pyrido[2,3-b]indol-9-yl) piperidine-2,6-dione] | < 100 | > 75 | < 100 | > 75 |
| O=C1CCC(N2Cc3cc(CCN4CCC(CCc5cnc(N6CCN7c8cc(-c9ccccc9O)nnc8NC[C@@H]7C6)nc5)CC4)ccc3C2=O)C(=O)N1 (stereo partly drawn) [Example 5, 3-(5-(2-(4-(2-(2-((R)-2-(2-hydroxyphenyl)-5,6,6a,7,9,10-hexahydro-8H-pyrazino[1′,2′:4,5]pyrazino[2,3-c]pyridazin-8-yl)pyrimidin-5-yl)ethyl)piperidin-1-yl)ethyl)-1-oxoisoindolin-2-yl)piperidine-2,6-dione] | < 100 | > 75 | < 100 | > 75 |
| O=C1CCC(n2c3ccc(CCCN4CCC(N5CC(N6CCN7c8cc(-c9ccccc9O)nnc8NC[C@H]7C6)C5)CC4)cc3c3cccnc32)C(=O)N1 (stereo partly drawn) [Example 21, 3-(6-(3-(4-(3-((S)-2-(2-hydroxyphenyl)-5,6,6a,7,9,10-hexahydro-8H-pyrazino [1′,2′:4,5]pyrazino[2,3-c]pyridazin-8-yl)azetidin-1-yl)piperidin-1-yl)propyl)-9H-pyrido[2,3-b]indol-9-yl)piperidine-2,6-dione] | < 100 | > 75 | < 100 | > 75 |
| O=C1CCC(N2C(=O)c3ccc(N4CCC(N5CCC(N6CCN7c8cc(-c9ccccc9O)nnc8NC[C@H]7C6)CC5)CC4)cc3C2=O)C(=O)N1 (stereo partly drawn) [Example 14, 2-(2,6-dioxopiperidin-3-yl)-5-(4-((S)-2-(2-hydroxyphenyl)-5,6,6a,7,9,10-hexahydro-8H-pyrazino[1′,2′:4,5]pyrazino[2,3-c]pyridazin-8-yl)-[1,4′-bipiperidin]-1′-yl) isoindoline-1,3-dione] | < 100 | > 75 | < 100 | > 75 |
| O=C1CCC(n2c3ccc(CCCN4CCN(CCN5CCN6c7cc(-c8ccccc8O)nnc7NC[C@H]6C5)CC4)cc3c3cccnc32)C(=O)N1 (stereo partly drawn) [Example 22, 3-(6-(3-(4-(2-((S)-2-(2-hydroxyphenyl)-5,6,6a,7,9,10-hexahydro-8H-pyrazino [1′,2′:4,5]pyrazino[2,3-c]pyridazin-8-yl)ethyl)piperazin-1-yl)propyl)-9H-pyrido[2,3-b]indol-9-yl)piperidine-2,6-dione] | < 100 | > 75 | < 100 | > 75 |
